Values of other authors as cited in PubChem BioAssay AID1259409 (Chemical Carcinogenesis Research Information System (CCRIS), 2018).

Test system: rodent chemically induced tumor inhibition, incidence and multiplicity
Assay: CCRIS tumor inhibitor studies
Conditions: Dose [Inhibitor]: 0, Route [Inhibitor]: ORAL

## O=C(O)c1ccc(O)c(O)c1
Carcinogen: N-BUTYL-N-(4-HYDROXYBUTYL)NITROSAMINE, 3817-11-6, 2000 PPM IN DIET FOR 33 WK BEGINNING 1 WK POST CARCINOGEN TREATMENT (STUDY DURATION: 41 WK), Species: RAT, Strain/Sex: F344/MALE, Target Tissue: Type of Lesion: BLADDER: CARCINOMA, Dose [Carcinogen]: 0.05% IN DRINKING WATER FOR 6 WK, Promoter: NONE USED
  tumour outcome (control, treated, inhibition, significance): 17/22 (77%), 11/27 (41%), 47%, p<0.03
Carcinogen: N-BUTYL-N-(4-HYDROXYBUTYL)NITROSAMINE, 3817-11-6, 2000 PPM IN DIET FOR 33 WK BEGINNING 1 WK POST CARCINOGEN TREATMENT (STUDY DURATION: 41 WK), Species: RAT, Strain/Sex: F344/MALE, Target Tissue: Type of Lesion: BLADDER: PAPILLOMA, Dose [Carcinogen]: 0.05% IN DRINKING WATER FOR 6 WK, Promoter: NONE USED
  tumour outcome (control, treated, inhibition, significance): 1/22 (5%), 1/27 (4%), 20%, not significant
Carcinogen: N-METHYL-N-NITROSOUREA, 684-93-5, 1000 PPM IN DIET FOR 14 WK BEGINNING 1 WK PRIOR TO CARCINOGEN TREATMENT (STUDY DURATION: 32 WK), Species: RAT, Strain/Sex: F344/MALE, Target Tissue: Type of Lesion: GLANDULAR STOMACH: ADENOCARCINOMA, Dose [Carcinogen]: 400 PPM IN DRINKING WATER FOR 12 WK, Promoter: NONE USED
  tumour outcome (control, treated, inhibition, significance): 59%, 18%, 69%, p<0.05
Carcinogen: N-METHYL-N-NITROSOUREA, 684-93-5, 1000 PPM IN DIET FOR 14 WK BEGINNING 1 WK PRIOR TO CARCINOGEN TREATMENT (STUDY DURATION: 36 WK), Species: RAT, Strain/Sex: F344/MALE, Target Tissue: Type of Lesion: GLANDULAR STOMACH: ADENOCARCINOMA, Dose [Carcinogen]: 400 PPM IN DRINKING WATER FOR 12 WK, Promoter: NONE USED
  tumour outcome (control, treated, inhibition, significance): 13/22 (59%), 4/22 (18%), 69%, p<0.05
Carcinogen: N-NITROSOBIS(2-OXOPROPYL)AMINE, 60599-38-4, 500 PPM IN DIET FOR 49 WK BEGINNING 1 WK POST CARCINOGEN LAST TREATMENT (STUDY DURATION: 51 WK), Species: HAMSTER, Strain/Sex: SYRIAN/FEMALE, Target Tissue: Type of Lesion: KIDNEY: ADENOCARCINOMA, Dose [Carcinogen]: 20 MG/KG BW 1/WK FOR 2 WK
  tumour outcome (control, treated, inhibition, significance): 7%, 7%, 0%, not significant
Carcinogen: N-NITROSOBIS(2-OXOPROPYL)AMINE, 60599-38-4, 500 PPM IN DIET FOR 49 WK BEGINNING 1 WK POST CARCINOGEN LAST TREATMENT (STUDY DURATION: 51 WK), Species: HAMSTER, Strain/Sex: SYRIAN/FEMALE, Target Tissue: Type of Lesion: LIVER: CHOLANGIOCELLULAR CARCINOMA, Dose [Carcinogen]: 20 MG/KG BW 1/WK FOR 2 WK
  tumour outcome (control, treated, inhibition, significance): 65.5%, 59%, 12%, not significant
Carcinogen: N-NITROSOBIS(2-OXOPROPYL)AMINE, 60599-38-4, 500 PPM IN DIET FOR 49 WK BEGINNING 1 WK POST CARCINOGEN LAST TREATMENT (STUDY DURATION: 51 WK), Species: HAMSTER, Strain/Sex: SYRIAN/FEMALE, Target Tissue: Type of Lesion: LIVER: HEMANGIOMA, Dose [Carcinogen]: 20 MG/KG BW 1/WK FOR 2 WK
  tumour outcome (control, treated, inhibition, significance): 3%, 0%, 100%, not significant
Carcinogen: N-NITROSOBIS(2-OXOPROPYL)AMINE, 60599-38-4, 500 PPM IN DIET FOR 49 WK BEGINNING 1 WK POST CARCINOGEN LAST TREATMENT (STUDY DURATION: 51 WK), Species: HAMSTER, Strain/Sex: SYRIAN/FEMALE, Target Tissue: Type of Lesion: LIVER: HEPATOCELLULAR ADENOMA, Dose [Carcinogen]: 20 MG/KG BW 1/WK FOR 2 WK
  tumour outcome (control, treated, inhibition, significance): 72%, 79%, -9%, not significant
Carcinogen: N-NITROSOBIS(2-OXOPROPYL)AMINE, 60599-38-4, 500 PPM IN DIET FOR 49 WK BEGINNING 1 WK POST CARCINOGEN LAST TREATMENT (STUDY DURATION: 51 WK), Species: HAMSTER, Strain/Sex: SYRIAN/FEMALE, Target Tissue: Type of Lesion: LIVER: HEPATOCELLULAR CARCINOMA, Dose [Carcinogen]: 20 MG/KG BW 1/WK FOR 2 WK
  tumour outcome (control, treated, inhibition, significance): 17%, 14%, 20%, not significant
Carcinogen: N-NITROSOBIS(2-OXOPROPYL)AMINE, 60599-38-4, 500 PPM IN DIET FOR 49 WK BEGINNING 1 WK POST CARCINOGEN LAST TREATMENT (STUDY DURATION: 51 WK), Species: HAMSTER, Strain/Sex: SYRIAN/FEMALE, Target Tissue: Type of Lesion: LUNG: ADENOCARCINOMA, Dose [Carcinogen]: 20 MG/KG BW 1/WK FOR 2 WK
  tumour outcome (control, treated, inhibition, significance): 33%, 33%, 0%, not significant
Carcinogen: N-NITROSOBIS(2-OXOPROPYL)AMINE, 60599-38-4, 500 PPM IN DIET FOR 49 WK BEGINNING 1 WK POST CARCINOGEN LAST TREATMENT (STUDY DURATION: 51 WK), Species: HAMSTER, Strain/Sex: SYRIAN/FEMALE, Target Tissue: Type of Lesion: LUNG: ADENOMA, Dose [Carcinogen]: 20 MG/KG BW 1/WK FOR 2 WK
  tumour outcome (control, treated, inhibition, significance): 83%, 87%, -4%, not significant
Carcinogen: N-NITROSOBIS(2-OXOPROPYL)AMINE, 60599-38-4, 500 PPM IN DIET FOR 49 WK BEGINNING 1 WK POST CARCINOGEN LAST TREATMENT (STUDY DURATION: 51 WK), Species: HAMSTER, Strain/Sex: SYRIAN/FEMALE, Target Tissue: Type of Lesion: OVARY: CYSTADENOMA, Dose [Carcinogen]: 20 MG/KG BW 1/WK FOR 2 WK
  tumour outcome (control, treated, inhibition, significance): 3%, 3%, 0%, not significant
Carcinogen: N-NITROSOBIS(2-OXOPROPYL)AMINE, 60599-38-4, 500 PPM IN DIET FOR 49 WK BEGINNING 1 WK POST CARCINOGEN LAST TREATMENT (STUDY DURATION: 51 WK), Species: HAMSTER, Strain/Sex: SYRIAN/FEMALE, Target Tissue: Type of Lesion: PANCREAS: ADENOCARCINOMA, Dose [Carcinogen]: 20 MG/KG BW 1/WK FOR 2 WK
  tumour outcome (control, treated, inhibition, significance): 86%, 90%, -4%, not significant
Carcinogen: N-NITROSOBIS(2-OXOPROPYL)AMINE, 60599-38-4, 1000 PPM IN DIET FOR 49 WK BEGINNING 1 WK POST CARCINOGEN LAST TREATMENT (STUDY DURATION: 51 WK), Species: HAMSTER, Strain/Sex: SYRIAN/FEMALE, Target Tissue: Type of Lesion: LIVER: CHOLANGIOCELLULAR ADENOMA, Dose [Carcinogen]: 20 MG/KG BW 1/WK FOR 2 WK
  tumour outcome (control, treated, inhibition, significance): 31%, 34%, -11%, not significant
Carcinogen: N-NITROSOBIS(2-OXOPROPYL)AMINE, 60599-38-4, 1000 PPM IN DIET FOR 49 WK BEGINNING 1 WK POST CARCINOGEN LAST TREATMENT (STUDY DURATION: 51 WK), Species: HAMSTER, Strain/Sex: SYRIAN/FEMALE, Target Tissue: Type of Lesion: LIVER: CHOLANGIOCELLULAR CARCINOMA, Dose [Carcinogen]: 20 MG/KG BW 1/WK FOR 2 WK
  tumour outcome (control, treated, inhibition, significance): 65%, 55%, 16%, not significant
Carcinogen: N-NITROSOBIS(2-OXOPROPYL)AMINE, 60599-38-4, 1000 PPM IN DIET FOR 49 WK BEGINNING 1 WK POST CARCINOGEN LAST TREATMENT (STUDY DURATION: 51 WK), Species: HAMSTER, Strain/Sex: SYRIAN/FEMALE, Target Tissue: Type of Lesion: LIVER: HEPATOCELLULAR ADENOMA, Dose [Carcinogen]: 20 MG/KG BW 1/WK FOR 2 WK
  tumour outcome (control, treated, inhibition, significance): 72% 59%, 19%, not significant
Carcinogen: N-NITROSOBIS(2-OXOPROPYL)AMINE, 60599-38-4, 1000 PPM IN DIET FOR 49 WK BEGINNING 1 WK POST CARCINOGEN LAST TREATMENT (STUDY DURATION: 51 WK), Species: HAMSTER, Strain/Sex: SYRIAN/FEMALE, Target Tissue: Type of Lesion: LIVER: HEPATOCELLULAR CARCINOMA, Dose [Carcinogen]: 20 MG/KG BW 1/WK FOR 2 WK
  tumour outcome (control, treated, inhibition, significance): 17%, 21%, -20%, not significant
Carcinogen: N-NITROSOBIS(2-OXOPROPYL)AMINE, 60599-38-4, 1000 PPM IN DIET FOR 49 WK BEGINNING 1 WK POST CARCINOGEN LAST TREATMENT (STUDY DURATION: 51 WK), Species: HAMSTER, Strain/Sex: SYRIAN/FEMALE, Target Tissue: Type of Lesion: LUNG: ADENOCARCINOMA, Dose [Carcinogen]: 20 MG/KG BW 1/WK FOR 2 WK
  tumour outcome (control, treated, inhibition, significance): 33%, 39%, -18%, not significant
Carcinogen: N-NITROSOBIS(2-OXOPROPYL)AMINE, 60599-38-4, 1000 PPM IN DIET FOR 49 WK BEGINNING 1 WK POST CARCINOGEN LAST TREATMENT (STUDY DURATION: 51 WK), Species: HAMSTER, Strain/Sex: SYRIAN/FEMALE, Target Tissue: Type of Lesion: LUNG: ADENOMA, Dose [Carcinogen]: 20 MG/KG BW 1/WK FOR 2 WK
  tumour outcome (control, treated, inhibition, significance): 83%, 89%, -7%, not significant
Carcinogen: N-NITROSOBIS(2-OXOPROPYL)AMINE, 60599-38-4, 1000 PPM IN DIET FOR 49 WK BEGINNING 1 WK POST CARCINOGEN LAST TREATMENT (STUDY DURATION: 51 WK), Species: HAMSTER, Strain/Sex: SYRIAN/FEMALE, Target Tissue: Type of Lesion: PANCREAS: ADENOCARCINOMA, Dose [Carcinogen]: 20 MG/KG BW 1/WK FOR 2 WK
  tumour outcome (control, treated, inhibition, significance): 86%, 90%, -4%, not significant
